In patent US20230330093A1, “APPLICATION OF NITROGEN-CONTAINING SATURATED HETEROCYCLIC COMPOUND” (SHANGHAI PHARMACEUTICALS HOLDING CO., LTD., priority 2020, published 2023):

System: cynomolgus monkeys
Experiment: 4-week safety study: necropsy, gross pathology and organ weights;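 also: daily nasogastric dosing for 28 days, organs weighed at necropsy on day 28 or after a 28-day drug-free recovery (day 56), relative weights expressed as percent of body or brain weight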
Description: Cynomolgus monkeys (5/sex/group) were selected using a computerized randomization procedure based on body weight, and the compound of Formula I was administered to the cynomolgus monkeys by nasogastric feeding at dose levels of 0 (control), 20, 100, 450 mg/kg/day in a volume of 5 ml/kg. Individual dose volumes were adjusted weekly based on body weight of animals. For all the groups, 2/3 of the animals were randomly selected and euthanized on day 28. The remaining animals were euthanized after 28-day drug free period.
A complete gross necropsy was conducted on all animals by visual inspection at the end of the exposure period (day 28) and the recovery phase (day 56). The following selected organs were trimmed, weighed and evaluated in terms of absolute weight and as a percentage of final body weight or brain weight: brain, heart, kidney, liver, spleen, thymus, testes, epididymides, uterus, ovaries, adrenals and thyroid (including the parathyroid). The following tissues were preserved in 10% neutral buffered formalin: brain, pituitary gland, thyroid (including the parathyroid), trachea, heart, pancreas, spleen, adrenal glands, prostate, ovaries, uterus (including cervix uteri and oviduct), vagina, testes, epididymides, seminal vesicle, esophagus, duodenum, jejunum, ileum, cecum, colon, rectum, mesenteric lymph nodes, Peyer's patches, submaxillary lymph nodes, aorta, eyes, skeletal muscle, sciatic nerve, femur (including metaphysis), mammary gland, sternum, salivary glands, spinal cord, urinary bladder, lung (including the bronchi), liver, kidneys, stomach, bone marrow (sternal), thymus, sternum, gallbladder, any gross lesions or masses. The lung tissue was inflated with fixative at the time of necropsy. All the preserved tissues were paraffin embedded, sectioned, stained with hematoxylin and eosin (HE) and examined microscopically. Bone marrow cellular morphology examination was conducted with both smear (sternum) and paraffin-embedded sternum section.
For each sex, body weight, rectal temperature, ECG, organ weight, hematological parameters and serum biochemical data were analyzed with a statistical software SAS 9.3. Firstly homogeneity of variance was analyzed using Levene's test. If P>0.05, the one-way ANOVA analysis was employed. If P<0.05, the Kruskal-Wallis test was used. If the resulting ANOVA p-value was <0.05, a comparison of each group using the Dunnett T test was performed. If the resulting Kruskal-Wallis test p-value was <0.05, then the Dunnett T test was performed after data rank conversion.

## COC(=O)NCCCn1nc([C@@H](C)N(C(=O)[C@H]2CNCCO2)C2CC2)c2ccc(C)nc21 [compound of Formula I]
Female, 450 mg/kg, d 56
  Thymus Absolute weight: 1.40 ± 0.14 g
  Thymus Relative weight (/body weight): 0.04 ± 0.01
  Thymus Relative weight (/brain weight): 2.12 ± 0.29
  Uterus Absolute weight: 9.60 ± 2.40 g
  Uterus Relative weight (/body weight): 0.27 ± 0.03
  Uterus Relative weight (/brain weight): 14.43 ± 3.09
  kidney Absolute weight: 14.75 ± 1.91 g
  kidney Relative weight (/body weight): 0.42 ± 0.00
  kidney Relative weight (/brain weight): 22.23 ± 2.05
Male, 20 mg/kg, d 28
  Liver Absolute weight: 69.03 ± 2.87 g
  Liver Relative weight (/body weight): 1.82 ± 0.21
  Liver Relative weight (/brain weight): 103.68 ± 11.79
  Thymus Absolute weight: 1.10 ± 0.20 g
  Thymus Relative weight (/body weight): 0.03 ± 0.01
  Thymus Relative weight (/brain weight): 1.67 ± 0.43
  kidney Absolute weight: 14.30 ± 1.42 g
  kidney Relative weight (/body weight): 0.37 ± 0.02
  kidney Relative weight (/brain weight): 21.46 ± 2.99
Male, 20 mg/kg, d 56
  Liver Absolute weight: 71.25 ± 1.77 g
  Liver Relative weight (/body weight): 1.44 ± 0.02
  Liver Relative weight (/brain weight): 100.96 ± 1.74
  Thymus Absolute weight: 2.95 ± 0.07 g
  Thymus Relative weight (/body weight): 0.06 ± 0.00
  Thymus Relative weight (/brain weight): 4.18 ± 0.08
  kidney Absolute weight: 16.40 ± 3.11 g
  kidney Relative weight (/body weight): 0.33 ± 0.06
  kidney Relative weight (/brain weight): 23.16 ± 3.43
Male, 100 mg/kg, d 28
  Liver Absolute weight: 72.93 ± 14.69 g
  Liver Relative weight (/body weight): 1.83 ± 0.25
  Liver Relative weight (/brain weight): 100.31 ± 9.48
  Thymus Absolute weight: 1.57 ± 0.90 g
  Thymus Relative weight (/body weight): 0.04 ± 0.03
  Thymus Relative weight (/brain weight): 2.27 ± 1.44
  kidney Absolute weight: 15.13 ± 3.62 g
  kidney Relative weight (/body weight): 0.37 ± 0.06
  kidney Relative weight (/brain weight): 20.85 ± 3.95
Male, 100 mg/kg, d 56
  Liver Absolute weight: 84.75 ± 5.59 g
  Liver Relative weight (/body weight): 1.76 ± 0.06
  Liver Relative weight (/brain weight): 115.98 ± 8.59
  Thymus Absolute weight: 2.45 ± 0.35 g
  Thymus Relative weight (/body weight): 0.05 ± 0.01
  Thymus Relative weight (/brain weight): 3.33 ± 0.02
  kidney Absolute weight: 17.85 ± 1.91 g
  kidney Relative weight (/body weight): 0.37 ± 0.03
  kidney Relative weight (/brain weight): 24.36 ± 0.80
Male, 450 mg/kg, d 28
  Liver Absolute weight: 94.37 ± 12.72 g
  Liver Relative weight (/body weight): 2.42 ± 0.20
  Liver Relative weight (/brain weight): 135.54 ± 14.14
  Thymus Absolute weight: 0.90 ± 0.10 g
  Thymus Relative weight (/body weight): 0.02 ± 0.01
  Thymus Relative weight (/brain weight): 1.30 ± 0.20
  kidney Absolute weight: 16.77 ± 2.31 g
  kidney Relative weight (/body weight): 0.43 ± 0.03
  kidney Relative weight (/brain weight): 24.07 ± 2.45
Male, 450 mg/kg, d 56
  Liver Absolute weight: 80.90 ± 4.95 g
  Liver Relative weight (/body weight): 1.64 ± 0.22
  Liver Relative weight (/brain weight): 119.80 ± 2.56
  Thymus Absolute weight: 2.20 ± 0.42 g
  Thymus Relative weight (/body weight): 0.04 ± 0.01
  Thymus Relative weight (/brain weight): 3.25 ± 0.50
  kidney Absolute weight: 18.75 ± 0.21 g
  kidney Relative weight (/body weight): 0.38 ± 0.02
  kidney Relative weight (/brain weight): 27.81 ± 1.42
high-dose monkeys
  absolute or relative weight of uterus: lower
  relative weight of liver and kidney: Higher
  relative weight of thymus: lower
Necropsy day 28 / day 56
  macroscopic findings related to administration: no macroscopic findings for monkeys deemed related to administration of the test article except mild intestinal tympanites and thymus atrophy for the monkey that died early
